Experimental data from paper PMC10828988, “Tuning the Softness of the Pendant Arms and the Polyazamacrocyclic Backbone to Chelate the ^203Pb/^212Pb Theranostic Pair” (Inorganic Chemistry, 2024).
Several values for one entry are separate records, joined by “and”; a condition that tells them apart may be missing. Equal values may be shown once. Read-outs that look alike come from different tables or passages of the source.

What was measured:
[1] = Concentration-dependent radiolabeling with [203Pb]Pb2+ (iTLC); conditions: for RCI of [^203Pb]Pb^2+: after 5 min; for RCI of [^203Pb]Pb^2+ / radiochemical incorporation (RCI) of [^203Pb]Pb^2+ / effect of a change in reaction time on RCI: pH = 7, room temperature; for effect of a change in reaction time on RCI: 5 min vs 1 h; for RCI of [^203Pb]Pb^2+ on heating: T = 80 °C
Procedure: Water replaced the ligands in the negative control. All of the radiolabeling for the cyclen-based derivatives was performed at room temperature and monitored at 5 min and 1 h time points whereas heating at T = 80 °C was also employed for TACD3S, TRI4S, and TE4S. All radiolabeling reactions were repeated at least in triplicate.
Radiochemical incorporation (RCI) was determined via instant thin-layer chromatography (iTLC) with silicic acid (SA)-impregnated paper TLC plates (iTLC-SA, Agilent Technologies, USA). Ethylenediamine tetraacetic acid (EDTA, 50 mM, pH = 5.5) was used as the eluent. […] The iTLC plates were analyzed on an Eckert & Ziegler AR-2000 TLC scanner, and all the data were processed with Eckert & Ziegler WinScan software.

[2] = Formation kinetics of Pb2+ complexes (UV-Vis / 1H NMR); assay type: physicochemical; conditions: for Pb^2+ complex formation: below pH = 4, after 2 weeks at room temperature or prolonged heating, UV-Vis; for time to reach equilibrium of Pb^2+ complexation: pH = 5, equimolar ligand and metal concentrations (10^–4 M), room temperature; for ability to complex Pb^2+: pH < 7, 1H NMR of metal-ligand mixtures
Procedure: The formation kinetics of the Pb^2+ complexes was evaluated at room temperature by UV–Vis or ^1H NMR spectroscopy. A typical experiment was performed by mixing equimolar amounts of metal and ligand solutions (final concentrations: 1.0 × 10^–4 M for UV–Vis, 1.0 × 10^–3 M for ^1H NMR) in buffered media at pH = 2 (HCl 10^–2 M), pH = 3.7 (formic/formiate buffer), pH = 5 (acetic/acetate buffer), and pH = 7.4 (2-[4-(2-hydroxyethyl)piperazin-1-yl]ethanesulfonic acid, i.e., HEPES, buffer). To avoid the formation of PbCO3 (Ks = 7.4 × 10^–14), water was boiled before each measurement.
The electronic spectra were collected in the 200–800 nm range at different time points using a Cary 60 UV–Visible spectrophotometer (Agilent) equipped with a 1 cm path length quartz cell. The complexation reactions were monitored by the increase in the absorption peaks diagnostic of the Pb^2+-ligand complex formation at the characteristic wavelength (Table S2) over time. ^1H NMR spectra were recorded on a 400 MHz Bruker Avance III HD spectrometer. All data were collected […] with Topspin 3.5 using standard Bruker processing parameters with Topspin 4.1.1 software. […] Water suppression was carried out with the excitation sculpting pulse scheme.[38]

[3] = Out-of-cell UV-Vis spectrophotometric titrations (stability constants, pPb); assay type: physicochemical; conditions: for log β, Pb^2+ + L ⇋ [PbL]: UV–Vis spectrophotometric titrations, I = 0.15 M NaNO3, T = 25 °C; for pPb = −log[Pb^2+]free / pPb* (−log of free Pb^2+ plus hydrolysis products): calculated at CPb^2+ = 10^–6 M, Cligand = 10^–5 M, pH = 7.4
Procedure: The ionic strength (I) was fixed to 0.15 M using sodium nitrate (NaNO3) as background electrolytes. All of the experiments described below were repeated at least in triplicate.
UV–Vis spectrophotometric titrations were carried out by the out-of-cell method in the pH range of 0–12 at T = 25 °C. […] A Mettler Toledo pH meter with a glass electrode was used to measure the pH. […] In highly acidic solutions (pH ≪ 2), the pH was computed from the acid concentration (pH = −logCH^+). After the pH adjustment, the vials were sealed, heated to T = 60 °C to ensure complete Pb^2+ complexation, and cooled to room temperature. The absorption spectra were recorded using the same apparatus described for the kinetic measurements (vide supra). The equilibrium was reached when no variations of the electronica spectra or the pH were detected.
All equilibrium data were processed using the least-squares fitting program PITMAP as described in our previous works.[2],[4],[28] The overall equilibrium constants refer to the general equilibria pM^m+ + qH^+ + rL^l– ⇆ MpHqLr^pm+q–rl, where M^m+ represent the metal ion and L^l– represents the deprotonated ligand, and are designated as logβ (βpqr = [MpLqHr]/[M]^p[L]^q[H]^r). The refinements of log β included the previously determined ligand protonation constants and the Pb^2+ hydrolysis products whose equilibrium constants were fixed to the literature values.[27],[39] […] The errors quoted are the standard deviations of the overall stability constants calculated by the PITMAP program.

[4] = parameters: method as in PMID 35571797, doi:10.1002/ejic.200700819; conditions: state-of-the-art ligands, computed from literature constants; cited from earlier work
[5] = parameters: method as in PMID 33527221; conditions: cited from earlier work
[6] = Acid-mediated dissociation kinetics in aqueous HCl (UV-Vis); assay type: physicochemical; conditions: room temperature
From the text: The dissociation kinetics of the Pb^2+ complexes were studied under pseudo-first-order conditions at room temperature without control of the ionic strength by the addition of a concentrated aqueous solution of HCl (0.01 to 1 M) to aqueous solutions of the preformed complexes. The concentration of the Pb^2+ complexes after the H^+ addition was 1.0 × 10^–4 M. The dissociation reaction was followed by the decreasing intensity of the absorption band of the complexes at the characteristic wavelength (Table S2) using the same apparatus described for the formation kinetic measurements (vide supra).
The data were processed and fitted using the equation lnAt = lnA0 – ^dkobst, where At and A0 are the absorbances at time t and at the beginning of the reaction and ^dkobs is the observed dissociation rate constant. The corresponding half-life was obtained from the equation t1/2 = ln(2)/^dkobs.

Molecule | radiochemical incorporation (RCI) of [^203Pb]Pb^2+ ([1]; ligand 10^–4 M, 1 h) | radiochemical incorporation (RCI) of [^203Pb]Pb^2+ ([1]; ligand 10^–7 M, 1 h) | time to reach equilibrium of Pb^2+ complexation [2] | log β, Pb^2+ + L ⇋ [PbL] [3] | pPb = −log[Pb^2+]free [3] | pPb* (−log of free Pb^2+ plus hydrolysis products) [3] | RCI of [^203Pb]Pb^2+ on heating ([1]; ligand 10^–4 M) | ability to complex Pb^2+ [2] | other results
CSCCN1CCN(CCSC)CCN(CCSC)CCN(CCSC)CC1 [DO4S, 1,4,7,10-tetrakis[2-(methylsulfanyl)ethyl]-1,4,7,10-tetraazacyclododecane] | 81 ± 10% and 81% | 1.4 ± 0.4% | 24 h | 12.3 ± 0.1 | 10.2 | 10.0 |  |  | RCI of [^203Pb]Pb^2+ [1]: 35%; Pb^2+ complex formation [2]: No complex formation was detected; reaction time of Pb^2+ complexation ([2]; pH = 7.4, room temperature): 1 h
O=C(O)CN1CCN(CC(=O)O)CCN(CC(=O)O)CCN(CC(=O)O)CC1 [DOTA, 1,4,7,10-tetraazacyclododecane-1,4,7,10-tetraacetic acid] |  |  |  |  |  |  |  |  | pPb [4]: 20; RCI of [^203Pb]Pb^2+ ([5]; ligand 10^–4 M): 96 ± 1%; RCI of [^203Pb]Pb^2+ ([5]; ligand 10^–5 M): 76 ± 9%; RCI of [^203Pb]Pb^2+ ([5]; ligand 10^–6 M): 3 ± 1%; RCI of [^203Pb]Pb^2+ ([5]; ligand 10^–7 M): 1.5 ± 0.2%
1,4,7-tris[2-(methylsulfanyl)ethyl]-10-acetamido-1,4,7,10-tetraazacyclododecane [DO3SAm] | > 90% | 14 ± 4% | 1 h | 16.8 ± 0.1 | 14.2 | 13.9 |  |  | effect of a change in reaction time on RCI [1]: no effect; radiochemical incorporation (RCI) of [^203Pb]Pb^2+ ([1]; ligand 10^–5 M, 1 h): > 90%; radiochemical incorporation (RCI) of [^203Pb]Pb^2+ ([1]; ligand 10^–6 M, 1 h): 68 ± 4%; radiochemical incorporation of [^203Pb]Pb^2+ ([1]; room temperature, 5 min reaction time, chelator concentration as low as 10^–5 M): quantitative radiochemical incorporation
CSCCN1CCNCCN(CCSC)CCN(CCSC)CC1.[Pb+2] [[Pb(DO3S)]^2+] |  |  |  |  |  |  |  |  | t1/2 acid-assisted dissociation ([6]; CHCl 0.01 M): 12 ± 2 min; ^dkobs acid-assisted dissociation ([6]; CHCl 0.1 M): 1.5 ± 0.3 min^–1; t1/2 acid-assisted dissociation ([6]; CHCl 0.1 M): 0.47 ± 0.09 min; t1/2 acid-assisted dissociation ([6]; CHCl 1.0 M): ^b (Instantaneous decomplexation during the reagent mixing time.)
NC(=O)CN1CCN(CC(N)=O)CCN(CC(N)=O)CCN(CC(N)=O)CC1 [TCMC, 1,4,7,10-tetraaza-1,4,7,10-tetra-(2-carbamoylmethyl)-cyclododecane, reference compound] |  | 41 ± 1% |  |  |  |  |  |  | effect of a change in reaction time on RCI [1]: no effect; radiochemical incorporation (RCI) of [^203Pb]Pb^2+ ([1]; ligand concentrations higher than 10^–6 M): quantitative; pPb [4]: > 18
CSCCN1CCNCCN(CCSC)CCN(CCSC)CC1 [DO3S, 1,4,7-tris[2-(methylsulfanyl)ethyl]-1,4,7,10-tetraazacyclododecane] | 88 ± 1% and 88% | 2 ± 1% | 6 h | 14.2 ± 0.1 | 11.3 | 11.0 |  |  | RCI of [^203Pb]Pb^2+ [1]: 65%; Pb^2+ complex formation [2]: No complex formation was detected
CSCCN1CCCN(CCSC)CCCN(CCSC)CCC1 [TACD3S, 1,5,9-tris[2-(methylsulfanyl)ethyl]-1,5,9-triazacyclododecane] | no radiometal incorporation was observed |  |  |  |  |  | only vaguely improved | not be able to complex Pb^2+ | 
CSCCN1CCCN(CCSC)CCN(CCSC)CCN(CCSC)CC1 [TRI4S, 1,4,7,10-tetrakis[2-(methylsulfanyl)ethyl]-1,4,7,10-tetrazacyclotridecane] | no radiometal incorporation was observed |  |  |  |  |  | only vaguely improved | not be able to complex Pb^2+ | 
CSCCN1CCCN(CCSC)CCN(CCSC)CCCN(CCSC)CC1 [TE4S, 1,4,8,11-tetrakis[2-(methylsulfanyl)ethyl]-1,4,8,11-tetrazacyclotetradecane] | no radiometal incorporation was observed |  |  |  |  |  | only vaguely improved | not be able to complex Pb^2+ | 
